Assay results published in PubChem BioAssay (NCI).
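Growth conditions: 96-well plates. Treatment: test compound, 48 hours, 5 concentrations. Analysis: linear interpolation between bracketing concentrations; unreached endpoints set to highest concentration. GI50 marks 50% less growth. The concentration for full growth arrest is given as TGI.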

What was measured:
Assay in all cases: NCI anticancer screen, dose series, 48 h
[1] = test system: T-47D breast
[2] = test system: 786-0 renal
[3] = test system: SF-295 CNS
[4] = test system: OVCAR-3 ovarian
[5] = test system: DU-145 prostate
[6] = test system: SNB-75 CNS
[7] = test system: SF-268 CNS
[8] = test system: HCT-15 colon
[9] = test system: MALME-3M melanoma
[10] = test system: HOP-62 NSCLC
[11] = test system: UACC-257 melanoma
[12] = test system: OVCAR-5 ovarian
[13] = test system: RXF 393 renal
[14] = test system: IGROV1 ovarian
[15] = test system: NCI-H226 lung
[16] = test system: PC-3 prostate
[17] = test system: MCF7 breast
[18] = test system: OVCAR-8 ovarian
[19] = test system: BT-549 breast
[20] = test system: NCI-H460 lung
[21] = test system: NCI-H522 lung
[22] = test system: HCT-116 colon
[23] = test system: SK-MEL-2 melanoma
[24] = test system: A549 NSCLC
[25] = test system: SNB-19 CNS
[26] = test system: EKVX NSCLC
[27] = test system: CAKI-1 renal
[28] = test system: SK-OV-3 ovarian
[29] = test system: UACC-62 melanoma
[30] = test system: SW-620 colon
[31] = test system: TK-10 renal
[32] = test system: HOP-92 NSCLC
[33] = test system: MDA-MB-231 breast
[34] = test system: NCI/ADR-RES ovarian
[35] = test system: OVCAR-4 ovarian
[36] = test system: NCI-H23 lung
[37] = test system: A498 renal
[38] = test system: UO-31 renal
[39] = test system: SF-539 CNS
[40] = test system: HS 578T breast
[41] = test system: U251 CNS
[42] = test system: SR leukemia
[43] = test system: LOX IMVI melanoma
[44] = test system: HCC-2998 colon
[45] = test system: SN12C renal
[46] = test system: ACHN renal
[47] = test system: MDA-MB-435
[48] = test system: CCRF-CEM leukemia
[49] = test system: HT29 colon
[50] = test system: COLO 205 colon
[51] = test system: M14 melanoma
[52] = test system: HL-60(TB) leukemia
[53] = test system: RPMI-8226 leukemia
[54] = test system: KM12 colon
[55] = test system: SK-MEL-28 melanoma
[56] = test system: SK-MEL-5 melanoma
[57] = test system: MOLT-4 leukemia

O=S(=O)(NCCNc1nccc(-c2c(-c3ccc(F)c(O)c3)nc3sccn23)n1)c1ccc(Cl)cc1
GI50 [1]: 1080 nM | TGI [1]: 8280 nM | GI50 [2]: 3380 nM | TGI [2]: 13600 nM | GI50 [3]: 2350 nM | TGI [3]: 14200 nM | GI50 [4]: 2560 nM | TGI [4]: 14900 nM | GI50 [5]: 2900 nM | TGI [5]: > 50000 nM | GI50 [6]: 1130 nM | TGI [6]: 9310 nM | GI50 [7]: 1800 nM | TGI [7]: 13400 nM | GI50 [8]: 1670 nM | TGI [8]: > 50000 nM | GI50 [9]: 1690 nM | TGI [9]: 22700 nM | GI50 [10]: 6170 nM | TGI [10]: 21500 nM | GI50 [11]: 2530 nM | TGI [11]: > 50000 nM | GI50 [12]: 7310 nM | TGI [12]: > 50000 nM | GI50 [13]: 651 nM | TGI [13]: 4700 nM | GI50 [14]: 1450 nM | TGI [14]: > 50000 nM | GI50 [15]: 1800 nM | TGI [15]: 18400 nM | GI50 [16]: 1140 nM | TGI [16]: > 50000 nM | GI50 [17]: 1520 nM | TGI [17]: > 50000 nM | GI50 [18]: 2180 nM | TGI [18]: 36700 nM | GI50 [19]: 1650 nM | TGI [19]: 14000 nM | GI50 [20]: 1930 nM | TGI [20]: > 50000 nM | GI50 [21]: 2080 nM | TGI [21]: 18600 nM | GI50 [22]: 1540 nM | TGI [22]: > 50000 nM | GI50 [23]: 1640 nM | TGI [23]: 7990 nM | GI50 [24]: 1690 nM | TGI [24]: > 50000 nM | GI50 [25]: 3350 nM | TGI [25]: 11300 nM | GI50 [26]: 2190 nM | TGI [26]: > 50000 nM | GI50 [27]: 1990 nM | TGI [27]: 10400 nM | GI50 [28]: 2800 nM | TGI [28]: 15900 nM | GI50 [29]: 967 nM | TGI [29]: 13000 nM | GI50 [30]: > 50000 nM | TGI [30]: > 50000 nM | GI50 [31]: 5160 nM | TGI [31]: 34600 nM | GI50 [32]: 2390 nM | TGI [32]: 13800 nM | GI50 [33]: 2980 nM | TGI [33]: 24100 nM | GI50 [34]: 1790 nM | TGI [34]: 17500 nM | GI50 [35]: 2790 nM | TGI [35]: > 50000 nM | GI50 [36]: 3560 nM | TGI [36]: 12200 nM | GI50 [37]: 1630 nM | TGI [37]: 11700 nM | GI50 [38]: 940 nM | TGI [38]: > 50000 nM | GI50 [39]: 5090 nM | TGI [39]: 11900 nM | GI50 [40]: 1260 nM | TGI [40]: 13300 nM | GI50 [41]: 3810 nM | TGI [41]: 16000 nM | GI50 [42]: 1870 nM | TGI [42]: > 50000 nM | GI50 [43]: 1780 nM | TGI [43]: > 50000 nM | GI50 [44]: 2930 nM | TGI [44]: > 50000 nM | GI50 [45]: 1540 nM | TGI [45]: > 50000 nM | GI50 [46]: 1400 nM | TGI [46]: > 50000 nM

N#Cc1cnc2cc(OC[C@@H](O)CO)c(NC(=O)C3CCCC3)cc2c1Nc1ccc(OCc2cccc(F)c2)c(Cl)c1
GI50 [1]: 1130 nM | TGI [1]: 4310 nM | GI50 [47]: 1820 nM | TGI [47]: 7710 nM | GI50 [48]: 480 nM | TGI [48]: 2190 nM | GI50 [2]: 4510 nM | TGI [2]: 11700 nM | GI50 [3]: 3780 nM | TGI [3]: 12200 nM | GI50 [4]: 874 nM | TGI [4]: 1820 nM | GI50 [5]: 712 nM | TGI [5]: 1420 nM | GI50 [6]: 2190 nM | TGI [6]: > 50000 nM | GI50 [7]: 1370 nM | TGI [7]: 5980 nM | GI50 [8]: 2450 nM | TGI [8]: > 50000 nM | GI50 [49]: 1390 nM | TGI [49]: 3840 nM | GI50 [10]: 1030 nM | TGI [10]: 2620 nM | GI50 [50]: 4280 nM | TGI [50]: 26000 nM | GI50 [51]: 765 nM | TGI [51]: 1610 nM | GI50 [12]: 7690 nM | TGI [12]: 17200 nM | GI50 [13]: 1290 nM | TGI [13]: 3410 nM | GI50 [15]: 3860 nM | TGI [15]: 11400 nM | GI50 [16]: 947 nM | TGI [16]: 1920 nM | GI50 [18]: 1160 nM | TGI [18]: 3010 nM | GI50 [52]: 789 nM | TGI [52]: 2760 nM | GI50 [19]: 1090 nM | TGI [19]: 2890 nM | GI50 [53]: 728 nM | TGI [53]: 3120 nM | GI50 [54]: 3840 nM | TGI [54]: 14200 nM | GI50 [20]: 1050 nM | TGI [20]: 4730 nM | GI50 [55]: 669 nM | TGI [55]: 1420 nM | GI50 [21]: 568 nM | TGI [21]: 1340 nM | GI50 [22]: 400 nM | TGI [22]: 1100 nM | GI50 [23]: 915 nM | TGI [23]: 1860 nM | GI50 [24]: 6740 nM | TGI [24]: 14900 nM | GI50 [25]: 3690 nM | TGI [25]: > 50000 nM | GI50 [26]: 1330 nM | TGI [26]: 6740 nM | GI50 [27]: 5610 nM | TGI [27]: > 50000 nM | GI50 [28]: 3230 nM | TGI [28]: 11500 nM | GI50 [30]: 1530 nM | TGI [30]: 6780 nM | GI50 [31]: 1990 nM | TGI [31]: 7210 nM | GI50 [32]: 990 nM | TGI [32]: 2480 nM | GI50 [33]: 740 nM | TGI [33]: 1820 nM | GI50 [34]: 21700 nM | TGI [34]: > 50000 nM | GI50 [35]: 514 nM | TGI [35]: 1280 nM | GI50 [36]: 1870 nM | TGI [36]: 11900 nM | GI50 [37]: 2780 nM | TGI [37]: 13400 nM | GI50 [38]: 2210 nM | TGI [38]: > 50000 nM | GI50 [39]: 1150 nM | TGI [39]: 2930 nM | GI50 [40]: 265 nM | TGI [40]: 1430 nM | GI50 [41]: 6790 nM | TGI [41]: 15600 nM | GI50 [42]: 1240 nM | TGI [42]: > 50000 nM | GI50 [43]: 1010 nM | TGI [43]: 2280 nM | GI50 [44]: 1100 nM | TGI [44]: 3380 nM | GI50 [56]: 7720 nM | TGI [56]: 17500 nM | GI50 [45]: 1880 nM | TGI [45]: 28600 nM | GI50 [46]: 3010 nM | TGI [46]: > 50000 nM | GI50 [57]: 1490 nM | TGI [57]: 4690 nM
